Legend:
C. albicans ATCC 38247 = test: NCCLS broth microdilution MIC (antifungal); assay type: cell-based; details: E = C. albicans ATCC 38247
Description: (§1) Compounds according to this invention were screened for their in vitro activities against selected species of bacteria and fungi. The minimal inhibition concentration (MIC) of these compounds was determined using the National Committee for Clinical Laboratory Standards (NCCLS) broth microdilution assay in microtiter plates, as set forth in: (1) the guidelines of the National Committee for Clinical Laboratory Standards (NCCLS) Document M7-A4 (NCCLS, 1997); (2) the guidelines of the National Committee for Clinical Laboratory Standards (NCCLS) Document M11-A4 (NCCLS, 1997); and (3) the guidelines and reference method of the National Committee for Clinical Laboratory Standards (NCCLS) Document M27-T (NCCLS, 1995). For antifungal essays, the method recommended in Murray, P R., 1995 Manual of Clinical Microbiology (ASM Press, Washington, D.C.), was employed. […]

B. cereus ATCC 11778 = test: NCCLS broth microdilution MIC; assay type: cell-based, Bacillus cereus; details: C = B. cereus ATCC 11778
Description: as §1

5′-AAAAAGTACAAAAA-3′ = assay type: binding; details: DNA sequence 5′-AAAAAGTACAAAAA-3′; pH 7.0, 22° C.
Description: (§2) A number of compounds according to this invention were screened for their ability to bind to three DNA sites, using DNase I footprinting. Generally, the procedure described in Dervan, WO 98/50582 (1998), was followed.
(§3) A plasmid was prepared by hybridizing two sets of 5′-phosphorylated complementary oligonucleotides, one set being
(§4) The target sites and their complements are identified in bold underline.
(§5) The resulting duplexes were ligated to the large pUC19 AvaI/SalI restriction fragment. The 3′-P32 end-labeled EcoRI/PvuII fragment was prepared by digesting the plasmid with EcoRI and PvuII with simultaneous fill-in using Sequenase v. 2.0, [alpha-P32]-deoxyadenosine-5′-triphosphate, and [alpha-P32]-thymidine-5′-triphosphate, and isolating the cloned fragment by nondenaturing gel electrophoresis. Standard methods were used for all DNA manipulations, including A and G sequencing. See, e.g., Maxam et al., Methods Enzymol., 1980, 65, 499-560; Iverson et al., Methods Enzymol., 1987, 15, 7823-7830; and Sambrook et al., 1989, Molecular Cloning, 2nd ed., Cold Spring Harbor Laboratory Press: Cold Spring Harbor, N.Y.
(§6) Quantitative DNase I footprint titration experiments were carried out as described previously (Dervan, WO 98/50582, 1998, “Dervan '582”) with the following changes. All reactions were carried out in a total volume of 400 μL, with polyamide stock solution or water added to 15,000 cpm radiolabeled restriction fragment affording final solution conditions of 10 mM Tris.HCl, 10 mM KCl, 10 mM MgCl2, 5 mM CaCl2, pH 7.0 and 0.01 nM, 0.1 nM, 1.0 nM, 10.0 nM polyamide or no polyamide for reference lanes. The polyamides were allowed to equilibrate at 22° C. for 16 hr. Footprinting reactions were initiated with addition of 10 μL of a DNase I stock solution (at the appropriate concentration to give ˜50% intact DNA) containing 1 mM DTT and allowed to proceed for 7 min at 22° C. The reactions were stopped, ethanol precipitated, resuspended in loading buffer, heat denatured, and placed on ice as described in Dervan '582. The reaction products were separated on a precast 8% polyacrylamide denaturing sequencing Castaway gel with 32 preformed wells from Stratagene in 1× TBE at 2000 V. Gels were dried according to the manufacturer's instructions and exposed to a storage phosphor screen (Molecular Dynamics). Quantitation and data analysis were carried out as described in Dervan '582.

5′-AAAAAGCAAAAA-3′ = assay type: binding; details: DNA sequence 5′-AAAAAGCAAAAA-3′; pH 7.0, 22° C.
Description: as §2, §3, §4, §5, §6

5′-AAAAAGACAAAAA-3′ = assay type: binding; details: DNA sequence 5′-AAAAAGACAAAAA-3′; pH 7.0, 22° C.
Description: as §2, §3, §4, §5, §6

E. coli ATCC 25922 = test: NCCLS broth microdilution MIC; assay type: cell-based; details: D = E. coli ATCC 25922
Description: as §1

S. pneumoniae ATCC 49619 = test: NCCLS broth microdilution MIC; assay type: cell-based, Streptococcus pneumoniae; details: F = S. pneumoniae ATCC 49619
Description: as §1

E. faecalis ATCC 29212 = test: NCCLS broth microdilution MIC; assay type: cell-based, Enterococcus faecalis; details: B = E. faecalis ATCC 29212
Description: as §1

S. aureus ATCC 29213 = test: NCCLS broth microdilution MIC; assay type: cell-based, Staphylococcus aureus; details: A = S. aureus ATCC 29213
Description: as §1

| SMILES | Minimum Inhibitory Concentration (MIC) (C. albicans ATCC 38247) | Minimum Inhibitory Concentration (MIC) (B. cereus ATCC 11778) | Equilibrium Association Constant (Ka) (5′-AAAAAGTACAAAAA-3′) | Equilibrium Association Constant (Ka) (5′-AAAAAGCAAAAA-3′) | Equilibrium Association Constant (Ka) (5′-AAAAAGACAAAAA-3′) | Minimum Inhibitory Concentration (MIC) (E. coli ATCC 25922) | Minimum Inhibitory Concentration (MIC) (S. pneumoniae ATCC 49619) | Minimum Inhibitory Concentration (MIC) (E. faecalis ATCC 29212) | Minimum Inhibitory Concentration (MIC) (S. aureus ATCC 29213) |
| --- | --- | --- | --- | --- | --- | --- | --- | --- | --- |
| CN(C)CC(C)(C)CNC(=O)CCNC(=O)c1cc(NC(=O)c2cc(NC(=O)CCNC(=O)c3cc(NC(=O)c4cc(NC(=O)c5cc(Br)c(Br)s5)cn4C)cn3C)cn2C)cn1C [Id-7] | >32 µg/mL | +++ (+++ = MIC ≦4) | ≧1 × 10^11 M^−1 | 5e+08 M⁻¹ | 5e+08 M⁻¹ | >32 µg/mL | +++ (+++ = MIC ≦4) | +++ (+++ = MIC ≦4) | +++ (+++ = MIC ≦4) |
| CN1CCCN(C(=O)CCNC(=O)c2cc(NC(=O)c3cc(NC(=O)CCNC(=O)c4cc(NC(=O)c5cc(NC(=O)c6ccc(Br)s6)cn5C)cn4C)cn3C)cn2C)CC1 [Id-16] | >32 µg/mL | >32 µg/mL | ≧1 × 10^11 M^−1 | 5e+10 M⁻¹ | 5e+10 M⁻¹ | >32 µg/mL | +++ (+++ = MIC ≦4) | >32 µg/mL | >32 µg/mL |
| Cn1cc(NC(=O)c2cc(NC(=O)CCNC(=O)c3cc(NC(=O)c4cc(NC(=O)c5ccc(Br)s5)cn4C)cn3C)cn2C)cc1C(=O)NCCC(=O)NCCCCN [Id-17] | >32 µg/mL | +++ (+++ = MIC ≦4) | ≧1 × 10^11 M^−1 | ≧1 × 10^11 M^−1 | ≧1 × 10^11 M^−1 | >32 µg/mL | +++ (+++ = MIC ≦4) | ++ (++ = MIC between 4 and 12) | + (+ = MIC from 12 to 32, inclusive) |
| CN(C)CCCNC(=O)CCNC(=O)c1cc(NC(=O)c2cc(NC(=O)CCNC(=O)c3cc(NC(=O)c4cc(NC(=O)c5ccc(Br)s5)cn4C)cn3C)cn2C)cn1C [Id-18] | >32 µg/mL | + (+ = MIC from 12 to 32, inclusive) | ≧1 × 10^11 M^−1 | ≧1 × 10^11 M^−1 | ≧1 × 10^11 M^−1 | >32 µg/mL | +++ (+++ = MIC ≦4) | ++ (++ = MIC between 4 and 12) | >32 µg/mL |
| CC(C)N(CCNC(=O)CCNC(=O)c1cc(NC(=O)c2cc(NC(=O)CCNC(=O)c3cc(NC(=O)c4cc(NC(=O)c5ccc(Br)s5)cn4C)cn3C)cn2C)cn1C)C(C)C [Id-19] | >32 µg/mL | +++ (+++ = MIC ≦4) | ≧1 × 10^11 M^−1 | 5e+09 M⁻¹ | 5e+09 M⁻¹ | >32 µg/mL | +++ (+++ = MIC ≦4) | +++ (+++ = MIC ≦4) | >32 µg/mL |
| Cn1cc(NC(=O)c2cc(NC(=O)CCNC(=O)c3cc(NC(=O)c4cc(NC(=O)c5ccc(Br)s5)cn4C)cn3C)cn2C)cc1C(=O)NCCC(=O)NCCCCCCN [Id-21] | >32 µg/mL | +++ (+++ = MIC ≦4) | ≧1 × 10^11 M^−1 | 5e+10 M⁻¹ | 1e+10 M⁻¹ | >32 µg/mL | +++ (+++ = MIC ≦4) | +++ (+++ = MIC ≦4) | >32 µg/mL |

Reference: patent US20060287247A1, “Halogen-substituted thienyl compounds” (priority 2001, published 2006)
